Results on one compound are retold here after US20200022386A1, “METHOD OF PREPARATION OF CA[…]” (PHARCON INC., priority 2018, published 2020).

Values after ≈ are worked out from the molar mass of the structure shown.

A short description of the data set: Solubility of cannabinoids / cannabis extract in ethanol. Type of data set: physicochemical. The conditions noted are these: organic solvent or mixture, room temperature, ethyl alcohol (solvent named). The text has this: Cannabinoids have extremely low water solubility and relatively high solubility in oils and polar organic solvents such as ethanol and propylene glycol. Micro- and nanoemulsions or liposomal formulations where cannabinoids incorporated into lipid phase of the colloidal dispersion can be efficiently used for preparation of cannabis loaded products. Nevertheless, for preparation of beverages with high content of biologically active cannabis components may be complicated since solubility in the oil phase may not be high enough to provide the desired concentration of cannabinoids in the prepared beverage while keeping the product stable and palatable. Additionally, terpenes presented in extract of cannabis, visibly improve solubility of cannabinoids while pure CBD, THC or other cannabinoids have much lower solubility. […] However, since cannabis terpenes are often associated with acrid and unpleasant taste and flavor, it is preferable to use purified cannabinoids with a potency (purity) of 90-100%.
Practically all proposed SNEDS formulations of cannabinoids have oil phase consisting of food oils, mainly mono-di or triglycerides, such as medium chain triglycerides (MCT oil, coconut oil), fish oil, soy oil, olive oil, acetylated mono-and diglycerides, etc. The food oils have excellent safety profile and can provide a reasonable solubility of cannabinoids. […]

`C=C(C)[C@@H]1CCC(C)=C[C@H]1c1c(O)cc(CCCCC)cc1O` [CBD, Cannabidiol]: the solubility lay in the range of 25 to 36 mg/mL (≈ 79.5 to 114 mM).

One may read the solubility as the dissolved amount per volume that the medium holds.
